This is an account of results in ChEMBL document CHEMBL1201862, “PubChem BioAssay data set” (2004).

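Cultured in 96-well plates, cells were exposed to test compound for 48 hours across five concentrations. Abbreviation: GI50, concentration required for 50% inhibition of growth.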 Activity calls are given as the source filed them. No stated cut-off is given here; in the data, active = GI50 up to about 1.1 µM and inactive = higher.

Assay in all cases: NCI anticancer screen, dose series, 48 h
Assay [1] has as its system NCI-H522.
For assay [2], the system named is LOX IMVI.
Assay [3] deals with DU-145.
Assay [4] concerns TK-10.
The subject of assay [5] is NCI/ADR-RES.
For assay [6], the system named is 786-0.
Assay [7] has as its system MDA-MB-435.
Assay [8] relates to IGROV-1.
Assay [9] has as its system K562.
For assay [10], the system named is HCT-116.
The subject of assay [11] is UACC-62.
The subject of assay [12] is SF-295.
The subject of assay [13] is RPMI-8226.
Assay [14] relates to ACHN.
Assay [15] relates to HT-29.
In assay [16] the test system is KM12.
The subject of assay [17] is UO-31.
The test system of assay [18] is A549.
Assay [19] deals with SN12C.
Assay [20] has as its system Hs-578T.

Take `Nc1nc(SCc2ccccc2)c2ncn(Cc3ccccc3)c2n1`: the GI50 in assay [1] is > 60.4 µM (inactive); in assay [2] it was > 100 µM (inactive); in assay [3] it was > 100 µM (inactive); in [4], > 100 µM (inactive); in [5], > 100 µM (inactive); in assay [6] it was > 100 µM (inactive). Further, the GI50 is > 71.8 µM (inactive) in assay [7]; > 100 µM (inactive) in assay [8]; > 87.3 µM (inactive) in [9]; > 100 µM (inactive) in assay [10]; > 83 µM (inactive) in [11]; > 100 µM (inactive) in assay [12]. For the same molecule, the GI50 was > 75.9 µM (inactive) in assay [13]; > 100 µM (inactive) in assay [14]; > 81.8 µM (inactive) in assay [15]; > 86.9 µM (inactive) in [16]; > 100 µM (inactive) in assay [17]; > 96.2 µM (inactive) in [18]. In addition, the GI50 in assay [19] and in [20] was > 100 µM (inactive) throughout.
For the molecule `COc1ccc(N2N=NN(C(C)C)/C2=C(/Cl)c2nnnn2-c2ccc(OC)cc2)cc1`, the GI50 in [1] is 2.76 µM (inactive); in assay [2], 2 µM (inactive); in assay [3], 8.11 µM (inactive); in [4], 16.2 µM (inactive); in assay [5] it was 27.7 µM (inactive); in assay [6], 2.76 µM (inactive). Also, the GI50 was 12.6 µM (inactive) in assay [7]; 14.9 µM (inactive) in assay [8]; 3.9 µM (inactive) in [9]; 5 µM (inactive) in assay [10]; 14.4 µM (inactive) in [11]; 16.6 µM (inactive) in assay [12]. The GI50 is 8.99 µM (inactive) in assay [13]; 16.6 µM (inactive) in assay [14]; 10.2 µM (inactive) in assay [15]; 17.1 µM (inactive) in assay [16]; 5.97 µM (inactive) in assay [17]; 17.8 µM (inactive) in [18]. In addition, the GI50 was 14.3 µM (inactive) in assay [19] and 22.1 µM (inactive) in assay [20].
Consider `Cc1ccc(N/N=C/C2=CC(C)(C)C(C#N)(C#N)C(O)=C2C#N)cc1`, for which the GI50 in assay [1] is > 100 µM (inactive); in assay [2], 65.8 µM (inactive); in assay [3], 66.7 µM (inactive); in assay [4] it was 99.5 µM (inactive); in [5], 56 µM (inactive); in assay [6] it was 66.4 µM (inactive). The GI50 in assay [7] was 62.5 µM (inactive); in assay [8], 21 µM (inactive); in assay [9], 21.3 µM (inactive); in [10], 35.4 µM (inactive); in assay [11] it was 30.4 µM (inactive); in assay [12] it was 69.3 µM (inactive). The GI50 was 22.2 µM (inactive) in [13]; 45.5 µM (inactive) in [14]; 37.8 µM (inactive) in [15]; 32.4 µM (inactive) in assay [16]; 37.7 µM (inactive) in [17]; 36.5 µM (inactive) in assay [18]. Further, the GI50 in [19] and in assay [20] was > 100 µM (inactive) throughout.
Consider `O=[N+]([O-])/C(C(Cl)=C(Cl)Cl)=C(/Nc1ccccc1)SCc1ccccc1`, for which the GI50 is 23.3 µM (inactive) in assay [1]; 20.5 µM (inactive) in assay [2]; 23.6 µM (inactive) in [3]; 29.8 µM (inactive) in assay [4]; 16.2 µM (inactive) in [5]; 17.3 µM (inactive) in assay [6]. Further, the GI50 in assay [7] was 17.8 µM (inactive); in assay [8] it was 22.3 µM (inactive); in [9], 24 µM (inactive); in assay [10], 16.6 µM (inactive); in [11], 20 µM (inactive); in assay [12], 34.4 µM (inactive). The GI50 was 14.1 µM (inactive) in [13]; 28.3 µM (inactive) in assay [14]; 29.6 µM (inactive) in assay [15]; 15.3 µM (inactive) in [16]; 20.8 µM (inactive) in [17]; 17.8 µM (inactive) in [18]. In addition, the GI50 in assay [19] was 22.4 µM (inactive); in assay [20] it was 44.1 µM (inactive).
Regarding `CC(C)(C)[Si](C)(C)OCC1OC(n2cnc3c(=O)[nH]c(N)nc32)C(O[Si](C)(C)C(C)(C)C)C1O[Si](C)(C)C(C)(C)C` (stereo not given), the GI50 in assay [1] was 1.68 µM (inactive); in [2], 2.09 µM (inactive); in assay [3], 2.33 µM (inactive); in assay [4] it was 2.34 µM (inactive); in assay [5] it was > 100 µM (inactive); in assay [6], 1.67 µM (inactive). The GI50 in assay [7] is 1.47 µM (inactive); in [8], 1.92 µM (inactive); in assay [9], 1.22 µM (inactive); in [10], 1.49 µM (inactive); in assay [11], 1.22 µM (inactive); in assay [12] it was 1.55 µM (inactive). In addition, the GI50 in [13] is 1.14 µM (inactive); in assay [14] it was 2.08 µM (inactive); in assay [15], 1.8 µM (inactive); in [16] it was 1.64 µM (inactive); in assay [17], 5.11 µM (inactive); in [18] it was 2.34 µM (inactive). The GI50 is 2.2 µM (inactive) in assay [19] and 2.46 µM (inactive) in assay [20].
Take `O=C(O)C[n+]1cn(NC(=O)Cc2ccccc2)cn1`: the GI50 in [1], in assay [2], in [3], in [4], in [5] and in [6] was > 10 µM (inactive) each time. Further, the GI50 in assay [7] is > 10 µM (inactive); in [8], > 10 µM (inactive); in assay [9], > 10 µM (inactive); in assay [10], > 10 µM (inactive); in [11] it was 0.664 µM (active); in assay [12], > 10 µM (inactive). Moreover, the GI50 in assay [13] is 0.501 µM (active); in [14], > 10 µM (inactive); in assay [15], > 10 µM (inactive); in assay [16], > 10 µM (inactive); in assay [17], > 10 µM (inactive); in assay [18] it was > 10 µM (inactive). Moreover, the results for the GI50 in assay [19] and in [20] were > 10 µM (inactive) and 0.158 µM (active), respectively.
As to `C=C1C(=O)C23CC1C[C@H](OC(C)=O)C2C1(C)C(OC(C)=O)C[C@H](O)C(C)(C)[C@H]1C(O)[C@@H]3OC(C)=O` (stereo not given in full), the GI50 was 1.61 µM (inactive) in assay [1]; 14.9 µM (inactive) in [2]; 18.1 µM (inactive) in assay [3]; 3.79 µM (inactive) in assay [4]; > 100 µM (inactive) in [5]; 7.87 µM (inactive) in assay [6]. Also, the GI50 was 8.09 µM (inactive) in [7]; 16.5 µM (inactive) in assay [8]; 3.56 µM (inactive) in assay [9]; 5.02 µM (inactive) in assay [10]; 13.3 µM (inactive) in assay [11]; 24.8 µM (inactive) in assay [12]. Also, the GI50 in assay [13] is 4.27 µM (inactive); in [14], 11.9 µM (inactive); in assay [15], 15.5 µM (inactive); in [16], 33 µM (inactive); in assay [17], 16.9 µM (inactive); in [18] it was 22.9 µM (inactive). Moreover, the values for the GI50 in assay [19] and in assay [20] were 8.07 µM (inactive) and 15.8 µM (inactive), respectively.
